Test results taken from patent publication US12678412B2, “Substituted tolans for the modulation of microbial colonization” (BioMendics, LLC, priority 2017, dated 2026).

What was measured:
S. typhimurium TA97a = assay: Dose range finding colony forming assay, strain TA97a with metabolic activation; format: cell-based
Description: A series of dose range finding assays were performed with five bacterial strains, S. typhimurium TA97a, TA98, TA100, TA1535, and E. coli WP2 uvrA pKM101, with and without metabolic activation at three plates per dose. The following doses, along with positive and negative controls, were tested: 5000, 2500, 1250, 500, 250, 125, 50, 20, 10, 5, 2, 1, and 0.2 μg/plate. The plates were evaluated for toxicity (a decrease in plate counts with increasing dose and/or a visible thinning of the background lawn) and for precipitation of the test article. Metabolic activation was included in some samples by adding phenobarbital/benzoflavone-induced rat liver S9 fractions with cofactors (S9 mix). Prior to use, freshly thawed aliquots of rat liver S9 were mixed with a sterile cofactor mix. The S9 mix contains a 10% liver S9 concentration and was refrigerated or stored on ice until used. When testing with metabolic activation, the S9 mix was used in the assay tube in place of phosphate buffer.
Dosing formulations were prepared to deliver all doses in a constant volume of 0.1 mL. The highest dose was prepared from test article weighed to the nearest 0.1 mg and the remaining formulations were prepared as serial dilutions from the high dose stock formulation. Using a permanent marking pen or computer printed labels, assay plates were labeled with the project and study numbers and the date. Assay plates and tubes were labeled with a unique identifier, which was used to match the assay tubes with the properly identified minimal glucose agar plate.
The pre-incubation method was used to perform the assay. The assay mix consisted of 0.1 mL of the test article formulation or control article, 0.5 mL S9 mix or phosphate buffer, and 0.1 mL of bacterial culture. Assay tubes were incubated at 37±1° C. with gentle agitation for 20±1 minutes, then 2.0-2.5 mL top agar was added to the assay mix and the top agar/assay mix poured onto appropriately labeled minimal glucose agar plates. Once the top agar hardened, the plates were inverted and incubated at 37±1° C. for 48±2 hours. Plates were counted with the Sorcerer (v. 2.2)/Ames Study Manager (v. 1.2.4) system from Perceptive Instruments (Suffolk, UK). With this system, plate counts are automatically transferred from the plate imager (Sorcerer) to a Study Manager spreadsheet, and the data are stored in a secure manner on an Oracle database. Some plates were hand counted, e.g., if sample precipitate interferes with automatic counting or toxicity results in the formation of microcolonies, in which case, counts for these plates were entered into the spreadsheet manually. Plates were scored also with the extent of colonization by a post fix code.

[1] = tested on: Methicillin Resistant Staphylococcus aureus (MRSA, USA 400); assay: Colony forming assay, 24 h plate assay, MRSA USA 400; format: cell-based
Description: Proliferating cultures of Methicillin Resistant Staphylococcus aureus (MRSA, USA 400) were used in a colony forming assay. Frozen stock cultures of MRSA USA 400 were thawed and grown overnight in tryptic soy broth (TSB) with shaking at 37° C. The overnight culture (0.5-1.0 mL) was added to 100 mL TSB and grown at 37° C. with shaking and monitored for an optical density of 0.55-0.60 in order to obtain a final inoculum suspension of approximately 10^8 CFU/mL.
BM3103 was suspended into a 70% v/v alcohol gel formulation to acquire the desired % w/v tested within the example. Each concentration was vortexed thoroughly until dissolved. Initial tested concentrations of BM3103 were 1, 0.5, and 0.1% w/v. These concentrations and the alcohol gel vehicle were mixed with equal parts of the 10^8 CFU/mL inoculum to obtain a final concentration of 0.5, 0.25, and 0.05% (22 mM, 11 mM, and 2 mM) BM3103. Tobramycin (600 μg/mL) served as the positive control. Vehicle and BM3103 formulations contained matching final concentration of 35% v/v alcohol.
BM3103 was dissolved into Transcutol (diethylene glycol monoethyl ether) at 2.5% w/v and vortexed until dissolved. This concentration was then serial diluted to achieve the remaining concentrations tested. Before plating, 100 μL of the final inoculum (10^8 CFU/mL) was mixed with 20 μL TSB broth and 80 μL of BM3103 doses or vehicle. Tobramycin, 600 μg/mL, served as the positive control. The final plating concentrations for BM3103 were 1, 0.5, 0.25, and 0.1% w/v (44 mM, 22 mM, 11 mM, 4 mM) BM3103. Vehicle and BM3103 formulations contained matching final concentration of 40% v/v Transcutol.
The above listed formulations combined with the MRSA inoculum were plated onto TSB agar plates. The plates were grown at 37° C. for 24 h, imaged, and the bacteria colonies were counted. The experiment was done in triplicate at each concentration level described above. Colony counts for each treatment were tabulated and the Log of the colony forming units/mL (Log CFU/mL) were determined. The mean and the standard error of the mean were calculated for each treatment.

For `COc1ccc(C#Cc2ccc(O)cc2)cc1` [BM3103, 4-hydroxy-4′-methoxytolan], the Colony forming units/plate (S. typhimurium TA97a; 0.2 μg/plate) was 89.0 colony forming units/plate, the Individual colony counts (S. typhimurium TA97a; 0.2 μg/plate) was 89 and the Colony forming units/plate (S. typhimurium TA97a; 1 μg/plate) was 122.0 colony forming units/plate. The Individual colony counts (S. typhimurium TA97a; 1 μg/plate) was 122, the Colony forming units/plate (S. typhimurium TA97a; 2 μg/plate) was 78.0 colony forming units/plate and the Individual colony counts (S. typhimurium TA97a; 2 μg/plate) was 78. For the same compound, the Colony forming units/plate (S. typhimurium TA97a; 5 μg/plate) was 78.0 colony forming units/plate, the Individual colony counts (S. typhimurium TA97a; 5 μg/plate) was 78 and the Colony forming units/plate (S. typhimurium TA97a; 10 μg/plate) was 77.0 colony forming units/plate. The Individual colony counts (S. typhimurium TA97a; 10 μg/plate) was 77.0, the Colony forming units/plate (S. typhimurium TA97a; 20 μg/plate) was 0.0 colony forming units/plate and the Individual colony counts (S. typhimurium TA97a; 20 μg/plate) was 0. The Colony forming units/plate (S. typhimurium TA97a; 50 μg/plate) was 0.0 colony forming units/plate, the Individual colony counts (S. typhimurium TA97a; 50 μg/plate) was 0 and the Colony forming units/plate (S. typhimurium TA97a; 125 μg/plate) was 0.0 colony forming units/plate. The Individual colony counts (S. typhimurium TA97a; 125 μg/plate) was 0, the Colony forming units/plate (S. typhimurium TA97a; 250 μg/plate) was 0.0 colony forming units/plate and the Individual colony counts (S. typhimurium TA97a; 250 μg/plate) was 0. The Colony forming units/plate (S. typhimurium TA97a; 500 μg/plate) was 0.0 colony forming units/plate, the Individual colony counts (S. typhimurium TA97a; 500 μg/plate) was 0 and the Colony forming units/plate (S. typhimurium TA97a; 1250 μg/plate) was 0.0 colony forming units/plate. The Individual colony counts (S. typhimurium TA97a; 1250 μg/plate) was 0, the “Plate postfix code (individual colony counts)” value (S. typhimurium TA97a; 1250 μg/plate) was “A P” and the Colony forming units/plate (S. typhimurium TA97a; 2500 μg/plate) was 0.0 colony forming units/plate. The Individual colony counts (S. typhimurium TA97a; 2500 μg/plate) was 0, the Colony forming units/plate (S. typhimurium TA97a; 5000 μg/plate) was 0.0 colony forming units/plate and the Individual colony counts (S. typhimurium TA97a; 5000 μg/plate) was 0. For the same compound, the “Reduction of MRSA USA 400 counts” value ([1]; 0.05% w/v, 2 mM, alcohol gel formulation, compared to the vehicle control, FIG. 9) was 4 fold, the “Reduction of MRSA USA 400 counts” value ([1]; 0.1% BM3103, Transcutol formulation, FIG. 10) was > 5 fold and the “Bacterial count of MRSA USA 400” value ([1]; 0.25% BM3103, alcohol gel formulation, FIG. 9) was “no bacterial count”. The “Bacterial count of MRSA USA 400” value ([1]; 0.5% BM3103, alcohol gel formulation, FIG. 9) was “no bacterial count” and the “Bacterial count of MRSA USA 400” value ([1]; remaining concentrations tested (1, 0.5, 0.25% w/v), Transcutol formulation, FIG. 10) was “no bacterial count”.
